Experiment [1] deals with immunoproteasome subunits PSMB8, PSMB9, and PSMB10. The experiment in a line: Immunoblot of IFNG-induced immunoproteasome subunits. The experiment is classed as cell-based, human. Particulars: for suppression of IFNG-induced immunoproteasome subunit protein, pulsed protocol / suppression of IFNG-induced immunoproteasome subunit protein, continuous protocol: MB135 cells; for suppression of IFNG-induced immunoproteasome subunit protein, pulsed protocol: 4 h doxycycline pulse, later IFNG 16 h; for suppression of IFNG-induced immunoproteasome subunit protein, continuous protocol: doxycycline 20 h, IFNG last 16 h. Here is the method:
In the “continuous” protocol (similar to the experiments shown in the prior FIGS. 1, 2, 4, 5, and 6), doxycycline is added to induce DUX4 expression at time 0 and four hours later IFNG is added for an additional 16 hours, resulting in 20 hours of continuous DUX4 induction with the last 16 hrs exposed to IFNG.
In the “pulsed” protocol, doxycycline is added at time 0 to induce DUX4 expression, but after four hours the media is changed to remove the doxycycline, resulting in a pulse of DUX4 mRNA and protein sufficient to induce DUX4 target gene expression (see Resnick et al., Cell Rep. 2019 Nov. 12; 29(7):1812-1820.e5). IFNG is added at 28 hours for a period of 16 hours prior to harvesting the cells. […] This difference is not likely to be due to different amounts of the DUX4 and mutant DUX4 proteins because at the time of harvest both DUX4 and the F67A mutant DUX4 protein levels have declined to similarly low amounts relative to the continuous protocol, but could be due to the activation of DUX4 target genes by the full-length DUX4 since the H3.X/Y proteins show persistent expression in the pulsed protocol.
Protein samples were harvested in RIPA buffer [150 mM NaCl, 1% NP-40, 0.5% Na-deocycholate, 1% SDS, 25 mM Tris-HCl pH7.4] supplemented with protease and phosphatase inhibitor tablets (Pierce), followed by sonication in Diagenode Bioruptor. Lysate was cleared by centrifugation at 16000×g and quantified using a Pierce BCA assay (Thermo Fisher Scientific). Samples were run on NuPAGE precast polyacrylamide gels (Invitrogen) and transferred to PVDF membrane. Membranes were blocked in PBS containing 0.1% Tween-20 and 5% non-fat dry milk before overnight incubation at 4° C. with primary antibodies (see resource table for a list of antibodies used in this study). Membranes were incubated with horseradish peroxidase-conjugated secondary antibodies for 1 hour at room temperature and SuperSignal chemiluminescent substrate (Thermo Scientific) was used for detection on film with a Mini-medical 90 processor. Membranes were stripped with Restore Western Blot Stripping Buffer (Pierce).
(Immunoblotting shows a protein as a band on a membrane.)

In experiment [2] the test system is T-cell activation. The experiment in a line: Activation of NYESO TCR-engineered T cells by NYESO expressing MEL375 cells (IFNG and IL-2 secretion). Format: cell-based, human. The note with it: pulse-expression 24 hrs prior to T-cell addition. The text has this:
To determine whether the combined short- and long-term mechanisms of MHC protein expression in response to cytokine signaling is sufficient to prevent T-cell activation, NYESO expressing MEL375 cells were used in an assay with T-cells engineered with the TCR (T Cell Receptor) for the NYESO antigen and measured T-cell activation by secretion of IFNG and IL-2.

The test system of experiment [3] is STAT1. The experiment in a line: Anti-FLAG co-immunoprecipitation and western blot for STAT1. Particulars: anti-FLAG IP from MB135 cells ± IFNG. The experiment is classed as binding, human. Here is the method: Centrifugation at 2500 rcf at 4° C. for 5 min pelleted the nuclei, supernatant was discarded, and nuclei resuspended in 1 mL IP buffer pH 7.4 (25 mM Tris-HCl pH 7.5, 175 mM NaCl, 1 mM EDTA, 0.2% NP-40, 5% glycerol) and incubated for 1 hour at 4° C. with rotation then spun at 21000 rcf for 10 minutes at 4° C. to pellet insoluble debris. Protein concentration was determined using the Pierce BCA Protein Assay Kit (ThermoFisher, 23225). An equivalent amount of protein per sample was pre-cleared with Dynabeads Protein G (Invitrogen) bound to mouse IgG (Abcam #131368) for 1 hour at 4° C. with rotation. FLAG-tagged constructs were then immunoprecipitated with Dynabeads Protein G beads coupled to mouse anti-FLAG M2 mAb (Sigma F3165) for 3 hours at 4° C. with rotation. Beads were washed 3× with 1 mL IP buffer and eluted by adding 2× NuPage LDS Sample Buffer (Thermo Fisher, diluted from 4× with PBS) to the beads and heating for 10 minutes at 70° C.
Antibodies against STAT1 [EPR4407] (ab109320), pSTAT1 Y701 [M135] (ab29045), pSTAT1 S727 [EPR3146] (ab109461), YBX1 [EP2708Y] (ab76149), PABPC1 (ab21060), hnRNPM [EPR13509 (B)] (ab177957), PRKDC [Y393] (ab32566), and HSP90AB1 [EPR16621] (ab203085) were purchased from Abcam. Antibodies against FLAG tag [M2] (F1804) and [M2] (F3146) were purchased from Sigma Aldrich. Antibodies against DDX3X [D19B4] (8192S), hnRNPK [R332] (4675S), TRIM28 [C42G12] (4124S), PPP2R1A [81G5] (2041S), NCL [D4C70] (14574S), and MYC tag [71D10] (2278S), and IDO1 [D5J4E] (86630S) were purchased from Cell Signaling Technology. Antibodies against hnRNPU (14599-1-AP), CDK4 (11026-1-AP), and HAT1 (11432-1-AP) were purchased from ProteinTech. The antibody against HSPA8 [SR39-04] (PIMA532002) was purchased from ThermoFisher. The antibody against DUX4 (P2G4) was described previously (Geng et al., 2011, Immunodetection of human double homeobox 4. Hybridoma (Larchmt) 30, 125-130). The antibodies Goat anti-Rabbit IgG HRP (ThermoFisher, A27036) and Rat anti-Mouse IgG HRP for IP (Abcam, ab131368) were used as secondary antibodies against rabbit and mouse primary antibodies for western blotting.

Entries after “also recorded” stand apart in the source; their conditions may differ.

With “DUX4: human DUX4 protein SEQ ID NO:3 expressed from doxycycline inducible codon altered transgene SEQ ID NO:2”, in experiment [1], the “suppression of IFNG-induced immunoproteasome subunit protein, pulsed protocol” value is “completely blocked; also recorded: elicited the same degree of suppression when assayed forty-four hours later; also recorded: completely block protein accumulation of PSMB9 and PSMB10”; the “suppression of IFNG-induced immunoproteasome subunit protein, continuous protocol” value is “completely blocked; also recorded: IFNG-induction of MHC-I and the immunoproteasome was suppressed; also recorded: completely block protein accumulation of PSMB9 and PSMB10”. Further, in experiment [1] (listed as wildtype DUX4), the “suppression of IFNG-induced immunoproteasome subunit protein, pulsed protocol” value is “suppressed MHC-I and immunoproteasome subunits”; the “suppression of IFNG-induced immunoproteasome subunit protein, continuous protocol” value is “suppressed IFNG-induced MHC-I and the immunoproteasome expression”. Besides, the “suppression of PSMB9 in PKR knockout background” value in experiment [1] (MB135iDUX4 WT and PKR-KO cells, continuous or pulsed) was “evident in both wild-type (WT) and PKR-KO cells”. Besides, in experiment [2], the “T-cell activation (IFNG and IL-2 secretion)” value is listed as “completely blocks the T-cell activation by the NYESO expressing MEL375 cells”.
Turning to “longCTD: 3×FLAG tag and nls in frame with carboxyterminal 271 amino acids of DUX4 (aa154-424), SEQ ID NOS: 8-9”, the results for the “co-immunoprecipitation with STAT1 / phosphorylated STAT1” value in experiment [3] (listed as DUX4-CTD), in experiment [3] (listed as DUX4 CTD) and in experiment [3] (listed as DUX4 longCTD) were “phosphorylation at Y701 is necessary for enhanced interaction; also recorded: preferentially interacts with pSTAT1-Y701”, “showed stronger interaction with phosphorylated STAT1” and “both show binding to STAT1; also recorded: STAT1 is associated”, respectively.

These data come from patent publication US20250339531A1, “DUX4 POLYPEPTIDES AND NUCLEIC ACIDS FOR TREATING INFLAMMATORY AND AUTOIMMUNE CONDITIONS” (Fred Hutchinson Cancer Center, priority 2021, published 2025).
